# From patent US9096560B2, “5-heterocyclylalkyl-3-hydroxy-2-phenylcyclopent-2-enones as herbicides” (Syngenta Limited, priority 2008, dated 2015)
# Assays:
# Assay type in all cases: in vivo
# [1] = tested on: Lolium perenne (LOLPE); assay: Example B pre-emergence herbicidal test, LOLPE; settings: rate 250 g/ha, evaluated after 13 days, 100=total damage to plant, 0=no damage to plant; for pest or weed control at 250 g/ha: Lolium perenne, 312 h
# Description: (§1) Seeds of a variety of test species were sown in standard soil in pots. After cultivation for one day (pre-emergence) or after 8 days cultivation (post-emergence) under controlled conditions in a glasshouse (at 24/16° C., day/night; 14 hours light; 65% humidity), the plants were sprayed with an aqueous spray solution derived from the formulation of the technical active ingredient in acetone/water (50:50) solution containing 0.5% Tween 20 (polyoxyethelyene sorbitan monolaurate, CAS RN 9005-64-5). The test plants were then grown in a glasshouse under controlled conditions in a glasshouse (at 24/16° C., day/night; 14 hours light; 65% humidity) and watered twice daily. After 13 days for pre and post-emergence, the test was evaluated (100=total damage to plant; 0=no damage to plant). Lolium perenne (LOLPE), Alopecurus myosuroides (ALOMY), Echinochloa crus-galli (ECHCG), Avena fatua (AVEFA) Pre-Emergence Activity
# [2] = tested on: Alopecurus myosuroides (ALOMY); assay: Example B pre-emergence herbicidal test, ALOMY; settings: rate 250 g/ha, evaluated after 13 days, 100=total damage to plant, 0=no damage to plant; for pest or weed control at 250 g/ha: Alopecurus myosuroides, 312 h
# Description: as §1
# [3] = tested on: Echinochloa crus-galli (ECHCG); assay: Example B pre-emergence herbicidal test, ECHCG; settings: rate 250 g/ha, evaluated after 13 days, 100=total damage to plant, 0=no damage to plant; for pest or weed control at 250 g/ha: Echinochloa crus-galli, 312 h
# Description: as §1
# [4] = tested on: Avena fatua (AVEFA); assay: Example B pre-emergence herbicidal test, AVEFA; settings: rate 250 g/ha, evaluated after 13 days, 100=total damage to plant, 0=no damage to plant; for pest or weed control at 250 g/ha: Avena fatua, 312 h
# Description: as §1
# [5] = tested on: Lolium perenne (LOLPE); assay: Example B post-emergence herbicidal test, LOLPE; settings: rate 250 g/ha, evaluated after 13 days; for pest or weed control at 250 g/ha: Lolium perenne, 312 h, scale 0-100, read-out: Post-emergence activity LOLPE (100=total damage to plant; 0=no damage to plant)
# Description: as §1, with “Post-Emergence” for “Pre-Emergence”
# [6] = tested on: Alopecurus myosuroides (ALOMY); assay: Example B post-emergence herbicidal test, ALOMY; settings: rate 250 g/ha, evaluated after 13 days; for pest or weed control at 250 g/ha: Alopecurus myosuroides, 312 h, scale 0-100, read-out: Post-emergence activity ALOMY (100=total damage to plant; 0=no damage to plant)
# Description: as §1, with “Post-Emergence” for “Pre-Emergence”
# [7] = tested on: Echinochloa crus-galli (ECHCG); assay: Example B post-emergence herbicidal test, ECHCG; settings: rate 250 g/ha, evaluated after 13 days; for pest or weed control at 250 g/ha: Echinochloa crus-galli, 312 h, scale 0-100, read-out: Post-emergence activity ECHCG (100=total damage to plant; 0=no damage to plant)
# Description: as §1, with “Post-Emergence” for “Pre-Emergence”
# [8] = tested on: Avena fatua (AVEFA); assay: Example B post-emergence herbicidal test, AVEFA; settings: rate 250 g/ha, evaluated after 13 days; for pest or weed control at 250 g/ha: Avena fatua, 312 h, scale 0-100, read-out: Post-emergence activity AVEFA (100=total damage to plant; 0=no damage to plant)
# Description: as §1, with “Post-Emergence” for “Pre-Emergence”
Structure (SMILES),pest or weed control at 250 g/ha [1] [%],pest or weed control at 250 g/ha [2] [%],pest or weed control at 250 g/ha [3] [%],pest or weed control at 250 g/ha [4] [%],pest or weed control at 250 g/ha [5] [%],pest or weed control at 250 g/ha [6] [%],pest or weed control at 250 g/ha [7] [%],pest or weed control at 250 g/ha [8] [%],Pre-emergence activity LOLPE (damage to plant) [1],Pre-emergence activity ALOMY (damage to plant) [2],Pre-emergence activity ECHCG (damage to plant) [3],Pre-emergence activity AVEFA (damage to plant) [4],Post-Emergence Activity LOLPE (100=total damage to plant; 0=no damage to plant) ([5]; scale 0-100),Post-Emergence Activity ALOMY (100=total damage to plant; 0=no damage to plant) ([6]; scale 0-100),Post-Emergence Activity ECHCG (100=total damage to plant; 0=no damage to plant) ([7]; scale 0-100),Post-Emergence Activity AVEFA (100=total damage to plant; 0=no damage to plant) ([8]; scale 0-100)
Cc1cc(C)c(C2=C(OC(=O)c3cccs3)CC(CC3CCN(C(=O)c4cccs4)C3)C2=O)c(C)c1 (stereo not drawn) [Compound P61],90,50,80,30,90,90,90,90,,,,,,,,
Cc1cc(C)c(C2=C(OC(=O)Oc3ccccc3)CC(CC3CCOC3)C2=O)c(C)c1 (stereo not drawn) [Compound P26],100,100,90,80,100,100,100,90,,,,,,,,
Cc1cc(C)c(C2C(=O)CC(CC3CCN(S(=O)(=O)C(F)(F)F)CC3)C2=O)c(C)c1 (stereo not drawn) [Compound T112],50,40,30,20,30,40,30,30,,,,,,,,
Cc1cc(C)c(C2C(=O)CC(C)(CC3CCOC3)C2=O)c(C)c1 (stereo not drawn) [Compound T30],90,60,80,30,80,80,80,70,,,,,,,,
Cc1cc(C)c(C2=C(O)CC(CC3CCOCC3)C2=O)c(C)c1 (stereo not drawn) [Compound P68],,,,,,,,,100,90,100,90,100,90,100,90
Cc1cc(C)c(C2C(=O)CC(CC3CCN(C(=O)c4ccc(-c5ccccc5)cc4)CC3)C2=O)c(C)c1 (stereo not drawn) [Compound T77],0,0,0,0,40,30,20,40,,,,,,,,
Cc1cccc(C(=O)N2CCC(CC3CC(=O)C(c4c(C)cc(C)cc4C)C3=O)CC2)c1 (stereo not drawn) [Compound T122],50,20,70,20,80,60,70,30,,,,,,,,
Cc1cc(C)c(C2=C(OC(=O)c3ccccc3)C/C(=C\C3CCN(C(=O)c4ccccc4)C3)C2=O)c(C)c1 (stereo not drawn) [Compound P48],80,70,40,60,90,90,90,100,,,,,,,,
Cc1cc(C)c(C2C(=O)CC(CC3CCN(C(=O)OC(C)(C)C)CC3)C2=O)c(C)c1 (stereo not drawn) [Compound T55],100,80,90,60,60,70,70,50,,,,,,,,
